Laboratory results from paper PMC6691587, “New CXCR1/CXCR2 inhibitors represent an effective treatment for kidney or head and neck cancers sensitive or refractory to reference treatments” (Theranostics, 2019).

What was measured:
Assay type in all cases: cell-based, human
[1] = tested on: 786-O; assay: XTT cell viability assay, 786-O RCC cells; conditions: Homo sapiens, 786-0; XTT assay, 48 h; SD 10%; mean of three experiments; read-out: IC50 786 (Kidney RCC)
Protocol: (§1) Fifty microliters of sodium 3′-[1-phenylaminocarbonyl)-3,4-tetrazolium]-bis(4-methoxy-6-nitro) benzene sulfonic acid hydrate (XTT) reagent was added to each well. The assay is based on the cleavage of the yellow tetrazolium salt XTT to form an orange formazan dye by metabolically active cells. This bio-reduction occurs in viable cells only and is related to NAD(P)H production through glycolysis. Therefore, the amount of formazan dye measured at 490 nm directly correlated with the number of metabolically active cells reflecting cell proliferation and viability. Each assay was performed in quadruplicate.

[2] = tested on: MDA-MD-231; assay: XTT cell viability assay, breast cancer cells; conditions: Homo sapiens, 48 h, SD 10%, mean of three experiments
Protocol: as §1

[3] = tested on: SKM1; assay: XTT cell viability assay, SKM1 MDS cells; conditions: Homo sapiens, SKM-1, 48 h, SD 10%, mean of three experiments, read-out: IC50 SK (MDS)
Protocol: as §1

[4] = tested on: A498; assay: XTT cell viability assay, A498 RCC cells; conditions: Homo sapiens, A498; XTT assay, 48 h; SD 10%; mean of three experiments; read-out: IC50 498 (Kidney RCC)
Protocol: as §1

[5] = tested on: OCI-AML3; assay: XTT cell viability assay, OCI-AML3 AML cells; conditions: Homo sapiens, OCI-AML-3, 48 h, SD 10%, mean of three experiments, read-out: IC50 L3 (AML)
Protocol: as §1

[6] = tested on: Molm14; assay: XTT cell viability assay, Molm14 AML cells; conditions: Homo sapiens, MOLM-14, 48 h, SD 10%, mean of three experiments
Protocol: as §1

[7] = tested on: RCC4; assay: XTT cell viability assay, RCC4 RCC cells; conditions: Homo sapiens, RCC4, 48 h, SD 10%, mean of three experiments, read-out: IC50 R4 (Kidney RCC)
Protocol: as §1

[8] = tested on: CAL33; assay: XTT cell viability assay, CAL33 HNSCC cells; conditions: Homo sapiens, CAL-33; XTT assay, 48 h; SD 10%; mean of three experiments; read-out: IC50 33 (HNSCC)
Protocol: as §1

[9] = tested on: K562; assay: XTT cell viability assay, K562 CML cells; conditions: Homo sapiens, K562, 48 h, SD 10%, mean of three experiments
Protocol: as §1

[10] = tested on: OCI-AML2; assay: XTT cell viability assay, OCI-AML2 AML cells; conditions: Homo sapiens, OCI-AML2, 48 h, SD 10%, mean of three experiments, read-out: IC50 L2 (AML)
Protocol: as §1

[11] = tested on: Molm13; assay: XTT cell viability assay, Molm13 AML cells; conditions: Homo sapiens, MOLM-13, 48 h, SD 10%, mean of three experiments
Protocol: as §1

[12] = tested on: CAL27; assay: XTT cell viability assay, CAL27 HNSCC cells; conditions: Homo sapiens, CAL-27; XTT assay, 48 h; SD 10%; mean of three experiments; read-out: IC50 27 (HNSCC)
Protocol: as §1

Structure (SMILES)	IC50 [1]	IC50 [2]	IC50 [3]	IC50 [5]	IC50 [6]	IC50 [9]	IC50 [10]	IC50 [11]	IC50 [4]	IC50 [7]	IC50 [8]	IC50 [12]
O=C(Nc1ccccc1)Nc1nc2ccccc2[nH]1 [C13]	20 µM	12 µM	25 µM	25 µM	20 µM	10 µM	18 µM	25 µM	10 µM	25 µM	10 µM	10 µM
O=C(Nc1ccccc1Cl)Nc1ccc(Cl)cc1Cl [C4]	> 25 µM	> 25 µM	> 25 µM	> 25 µM	> 25 µM	> 25 µM	> 25 µM	> 25 µM	> 25 µM	> 25 µM	> 25 µM	> 25 µM
Cc1ccc(NC(=O)Nc2ccccc2Cl)cc1 [C1]	> 25 µM	> 25 µM	> 25 µM	> 25 µM	> 25 µM	> 25 µM	> 25 µM	> 25 µM	> 25 µM	> 25 µM	> 25 µM	> 25 µM
COc1ccc(NC(=O)Nc2nc3ccccc3[nH]2)cc1 [C17]	> 25 µM	> 25 µM	> 25 µM	> 25 µM	> 25 µM	> 25 µM	> 25 µM	> 25 µM	> 25 µM	> 25 µM	> 25 µM	> 25 µM
S=C(Nc1ccccc1)Nc1ccc(Cl)cc1Cl [C8]	> 25 µM	> 25 µM	> 25 µM	> 25 µM	> 25 µM	> 25 µM	> 25 µM	> 25 µM	> 25 µM	> 25 µM	> 25 µM	> 25 µM
O=C(Nc1nc2ccccc2[nH]1)Nc1ccccc1Cl [C14]	> 25 µM	> 25 µM	> 25 µM	> 25 µM	> 25 µM	> 25 µM	> 25 µM	> 25 µM	> 25 µM	> 25 µM	> 25 µM	> 25 µM
Cc1ccc(NC(=O)Nc2ccc(Cl)cc2)cc1 [C3]	> 25 µM	> 25 µM	> 25 µM	> 25 µM	> 25 µM	> 25 µM	> 25 µM	> 25 µM	> 25 µM	> 25 µM	> 25 µM	> 25 µM
O=C(Nc1ccc(Cl)cc1)Nc1ccc(Cl)cc1 [C10]	> 25 µM	> 25 µM	> 25 µM	> 25 µM	> 25 µM	> 25 µM	> 25 µM	> 25 µM	> 25 µM	> 25 µM	> 25 µM	> 25 µM
O=C(Nc1cccc(Cl)c1)Nc1ccccc1O [C11]	> 25 µM	> 25 µM	> 25 µM	> 25 µM	> 25 µM	> 25 µM	> 25 µM	> 25 µM	> 25 µM	> 25 µM	> 25 µM	> 25 µM
O=C(Nc1ccc(Cl)cc1)Nc1ccc(Cl)cc1Cl [C6]	> 25 µM	> 25 µM	> 25 µM	22 µM	> 25 µM	15 µM	25 µM	22 µM	22 µM	> 25 µM	> 25 µM	25 µM
O=C(Nc1cccc(Cl)c1)Nc1ccc(Cl)cc1Cl [C5]	22 µM	> 25 µM	22 µM	20 µM	25 µM	20 µM	22 µM	20 µM	22 µM	20 µM	25 µM	15 µM

More lines, main results first:

IC50 [1]	IC50 [2]	IC50 [3]	IC50 [5]	IC50 [6]	IC50 [9]	IC50 [10]	IC50 [11]	Structure (SMILES)	IC50 [4]	IC50 [7]	IC50 [8]	IC50 [12]
> 25 µM	> 25 µM	> 25 µM	> 25 µM	> 25 µM	> 25 µM	> 25 µM	> 25 µM	Cc1cccc(NC(=O)Nc2nc3ccc(C)cc3s2)c1 [C27]	> 25 µM	> 25 µM	> 25 µM	> 25 µM
> 25 µM	> 25 µM	> 25 µM	> 25 µM	> 25 µM	25 µM	> 25 µM	> 25 µM	O=C(Nc1ccc(Cl)cc1)Nc1nc2ccccc2s1 [C23]	25 µM	20 µM	> 25 µM	> 25 µM
> 25 µM	> 25 µM	> 25 µM	> 25 µM	> 25 µM	25 µM	> 25 µM	> 25 µM	COc1ccc(NC(=O)Nc2nc3ccccc3s2)cc1 [C24]	> 25 µM	15 µM	> 25 µM	> 25 µM
> 25 µM	> 25 µM	> 25 µM	> 25 µM	25 µM	> 25 µM	> 25 µM	> 25 µM	CCOc1ccc2nc(NC(=O)Nc3ccc(OC)cc3)sc2c1 [C33]	> 25 µM	> 25 µM	> 25 µM	> 25 µM
> 25 µM	> 25 µM	> 25 µM	> 25 µM	> 25 µM	> 25 µM	> 25 µM	> 25 µM	Cc1ccc(NC(=O)Nc2cccc(Cl)c2)cc1 [C2]	> 25 µM	> 25 µM	> 25 µM	> 25 µM
> 25 µM	> 25 µM	> 25 µM	> 25 µM	> 25 µM	25 µM	> 25 µM	> 25 µM	O=C(Nc1cccc(Cl)c1)Nc1nc2ccccc2s1 [C22]	> 25 µM	20 µM	> 25 µM	> 25 µM
> 25 µM	> 25 µM	> 25 µM	> 25 µM	> 25 µM	> 25 µM	10 µM	> 25 µM	O=C(Nc1nc2ccccc2s1)Nc1ccccc1Cl [C21]	> 25 µM	25 µM	> 25 µM	> 25 µM
> 25 µM	> 25 µM	> 25 µM	> 25 µM	> 25 µM	> 25 µM	> 25 µM	> 25 µM	O=C(Nc1cccc(Cl)c1)Nc1nc2ccccc2[nH]1 [C15]	> 25 µM	> 25 µM	> 25 µM	> 25 µM
> 25 µM	> 25 µM	> 25 µM	> 25 µM	> 25 µM	> 25 µM	> 25 µM	> 25 µM	CCOc1ccc2nc(NC(=O)Nc3ccc(C)cc3)sc2c1 [C32]	> 25 µM	> 25 µM	> 25 µM	> 25 µM
> 25 µM	> 25 µM	> 25 µM	> 25 µM	> 25 µM	> 25 µM	> 25 µM	> 25 µM	O=C(Nc1ccccc1)Nc1nc2ccccc2s1 [C20]	> 25 µM	> 25 µM	> 25 µM	> 25 µM
> 25 µM	> 25 µM	> 25 µM	> 25 µM	25 µM	25 µM	25 µM	> 25 µM	CCOc1ccc2nc(NC(=O)Nc3cccc(C)c3)sc2c1 [C31]	> 25 µM	> 25 µM	> 25 µM	> 25 µM
> 25 µM	> 25 µM	> 25 µM	> 25 µM	> 25 µM	> 25 µM	> 25 µM	> 25 µM	Cc1ccc2nc(NC(=O)Nc3cccc(Cl)c3)sc2c1 [C26]	> 25 µM	> 25 µM	> 25 µM	> 25 µM
